Literature values in patent US20160310758A1, “SYSTEMS AND METHODS FOR PHOTOACTIVATING A PHOTOSENSITIZER APPLIED TO AN EYE” (Avedro, Inc., priority 2015, published 2016).

Columns and labels:
bacteria = settings: D2O by itself, without photosensitizer; Skladnev et al. 1996
[1] = non-ionic permeability enhancer in riboflavin formulations

Row | Compound | killing of bacteria (bacteria) | HLB number [1]
1 | [2H]O[2H] [D2O, deuterated water] | does not kill bacteria | –
2 | Polyoxyethylene (9) lauryl ether [Polidocanol] | – | approximately 13.6
